The values below come from ChEMBL document CHEMBL3046590, “Design and synthesis of some thiazolotriazolyl esters as anti-inflammatory and analgesic agents” (Med Chem Res, 2012).

Data set [1] has as its system Mus musculus. Briefly: Anti-inflammatory activity in Mus musculus BALB/c (mouse) assessed as carrageenan-induced paw swelling at 200 mg/kg, po administered 1 hr followed by carrageenan challenge measured at 360 min (reference value: 105 +/- 4.5 x 10^-2 mm). The data set is classed as functional.
In data set [2] the test system is Mus musculus. Briefly: Toxicity in Mus musculus BALB/c (mouse) assessed as mortality at 50 to 200 mg/kg, po after 72 hr. The data set is classed as organism-based. On the set-up: dose 50-200 mg/kg, route oral. Particulars: in vivo.
Data set [3] has as its system Mus musculus. The data set is described as follows: Antioxidant activity in Mus musculus BALB/c (mouse) stomach assessed as TBARS level at 100 mg/kg, po (reference value: 80.4 +/- 5.4 nmol/g ). It is filed as functional.
Data set [4] relates to Mus musculus. Briefly: Anti-inflammatory activity in Mus musculus BALB/c (mouse) assessed as carrageenan-induced paw swelling at 50 mg/kg, po administered 1 hr followed by carrageenan challenge measured at 270 min (reference value: 78 +/- 8.4 x 10^-2 mm). It is filed as functional. (In the carrageenan paw model, swelling and tenderness develop within hours.)
Data set [5] deals with Mus musculus. Briefly: Anti-inflammatory activity in Mus musculus BALB/c (mouse) assessed as inhibition of carrageenan-induced paw swelling at 50 mg/kg, po administered 1 hr followed by carrageenan challenge measured at 180 min relative to control. The data set is classed as functional.
The test system of data set [6] is Mus musculus. The data set is described as follows: Anti-inflammatory activity in Mus musculus BALB/c (mouse) assessed as inhibition of carrageenan-induced paw swelling at 200 mg/kg, po administered 1 hr followed by carrageenan challenge measured at 270 min relative to control. The data set is classed as functional.
The test system of data set [7] is Mus musculus. The data set is described as follows: Anti-inflammatory activity in Mus musculus BALB/c (mouse) assessed as inhibition of carrageenan-induced paw swelling at 100 mg/kg, po administered 1 hr followed by carrageenan challenge measured at 180 min relative to control. It is filed as functional.
The subject of data set [8] is Mus musculus. The data set is described as follows: Anti-inflammatory activity in Mus musculus BALB/c (mouse) assessed as carrageenan-induced paw swelling at 50 mg/kg, po administered 1 hr followed by carrageenan challenge measured at 90 min (reference value: 39 +/- 5.6 x 10^-2 mm). The data set is classed as functional.
In data set [9] the test system is Mus musculus. Briefly: Anti-inflammatory activity in Mus musculus BALB/c (mouse) assessed as carrageenan-induced paw swelling at 100 mg/kg, po administered 1 hr followed by carrageenan challenge measured at 90 min (reference value: 39 +/- 5.6 x 10^-2 mm). The data set is classed as functional.
The test system of data set [10] is Mus musculus. The data set is described as follows: Anti-inflammatory activity in Mus musculus BALB/c (mouse) assessed as inhibition of carrageenan-induced paw swelling at 50 mg/kg, po administered 1 hr followed by carrageenan challenge measured at 90 min relative to control. It is filed as functional.
For data set [11], the system named is Mus musculus. Briefly: Anti-inflammatory activity in Mus musculus BALB/c (mouse) assessed as carrageenan-induced paw swelling at 50 mg/kg, po administered 1 hr followed by carrageenan challenge measured at 360 min (reference value: 105 +/- 4.5 x 10^-2 mm). The data set is classed as functional.
Data set [12] relates to Mus musculus. Briefly: Anti-inflammatory activity in Mus musculus BALB/c (mouse) assessed as carrageenan-induced paw swelling at 100 mg/kg, po administered 1 hr followed by carrageenan challenge measured at 360 min (reference value: 105 +/- 4.5 x 10^-2 mm). The data set is classed as functional.
Data set [13] has as its system Mus musculus. The data set is described as follows: Anti-inflammatory activity in Mus musculus BALB/c (mouse) assessed as inhibition of carrageenan-induced paw swelling at 100 mg/kg, po administered 1 hr followed by carrageenan challenge measured at 360 min relative to control. It is filed as functional.
Data set [14] relates to Mus musculus. Briefly: Toxicity in Mus musculus BALB/c (mouse) assessed as behavioral changes at 50 to 200 mg/kg, po after 72 hr. It is filed as organism-based. On the set-up: dose 50-200 mg/kg, route oral. Particulars: in vivo.
Data set [15] concerns Mus musculus. The data set is described as follows: Anti-inflammatory activity in Mus musculus BALB/c (mouse) assessed as carrageenan-induced paw swelling at 100 mg/kg, po administered 1 hr followed by carrageenan challenge measured at 180 min (reference value: 52 +/- 4.6 x 10^-2 mm). The data set is classed as functional.
For data set [16], the system named is Mus musculus. Briefly: Anti-inflammatory activity in Mus musculus BALB/c (mouse) assessed as carrageenan-induced paw swelling at 100 mg/kg, po administered 1 hr followed by carrageenan challenge measured at 270 min (reference value: 78 +/- 8.4 x 10^-2 mm). The data set is classed as functional.
For data set [17], the system named is Mus musculus. The data set is described as follows: Anti-inflammatory activity in Mus musculus BALB/c (mouse) assessed as carrageenan-induced paw swelling at 200 mg/kg, po administered 1 hr followed by carrageenan challenge measured at 90 min (reference value: 39 +/- 5.6 x 10^-2 mm). The data set is classed as functional.
Data set [18] has as its system Mus musculus. The data set is described as follows: Analgesic activity in Mus musculus BALB/c (mouse) assessed as inhibition of acetic acid-induced writhing at 100 mg/kg, po administered 1 hr followed by acetic acid challenge measured for 10 min. The data set is classed as functional.
Data set [19] has as its system Mus musculus. Briefly: Anti-inflammatory activity in Mus musculus BALB/c (mouse) assessed as carrageenan-induced paw swelling at 200 mg/kg, po administered 1 hr followed by carrageenan challenge measured at 180 min (reference value: 52 +/- 4.6 x 10^-2 mm). The data set is classed as functional.
For data set [20], the system named is Mus musculus. The data set is described as follows: Anti-inflammatory activity in Mus musculus BALB/c (mouse) assessed as inhibition of carrageenan-induced paw swelling at 200 mg/kg, po administered 1 hr followed by carrageenan challenge measured at 180 min relative to control. It is filed as functional.
The subject of data set [21] is Mus musculus. Briefly: Anti-inflammatory activity in Mus musculus BALB/c (mouse) assessed as inhibition of carrageenan-induced paw swelling at 100 mg/kg, po administered 1 hr followed by carrageenan challenge measured at 270 min relative to control. It is filed as functional.
The subject of data set [22] is Mus musculus. The data set is described as follows: Anti-inflammatory activity in Mus musculus BALB/c (mouse) assessed as carrageenan-induced paw swelling at 200 mg/kg, po administered 1 hr followed by carrageenan challenge measured at 270 min (reference value: 78 +/- 8.4 x 10^-2 mm). The data set is classed as functional.
Data set [23] has as its system Mus musculus. Briefly: Anti-inflammatory activity in Mus musculus BALB/c (mouse) assessed as carrageenan-induced paw swelling at 50 mg/kg, po administered 1 hr followed by carrageenan challenge measured at 180 min (reference value: 52 +/- 4.6 x 10^-2 mm). The data set is classed as functional.
In data set [24] the test system is Mus musculus. The data set is described as follows: Anti-inflammatory activity in Mus musculus BALB/c (mouse) assessed as inhibition of carrageenan-induced paw swelling at 100 mg/kg, po administered 1 hr followed by carrageenan challenge measured at 90 min relative to control. It is filed as functional.
Data set [25] relates to Mus musculus. Briefly: Anti-inflammatory activity in Mus musculus BALB/c (mouse) assessed as inhibition of carrageenan-induced paw swelling at 50 mg/kg, po administered 1 hr followed by carrageenan challenge measured at 360 min relative to control. The data set is classed as functional.

Molecules are shown by their SMILES.

On to `CCOC(=O)c1sc2nc(CCc3cc(OC)c(OC)c(OC)c3)nn2c1C`, for which the Activity is 92.9 ×10⁻² mm with Mus musculus [1]; “Non-toxic” in the data set on Mus musculus [2]; 109.1 nmol/g in the data set with Mus musculus [3]; 73.8 ×10⁻² mm with Mus musculus [4]; 19.5 ×10⁻² mm with Mus musculus [8]; 34.5 ×10⁻² mm in the data set on Mus musculus [9]. The Activity was 101.4 ×10⁻² mm with Mus musculus [11]; 83.8 ×10⁻² mm in the data set on Mus musculus [12]; “Non-toxic” in the data set on Mus musculus [14]; 37 ×10⁻² mm in the data set on Mus musculus [15]; 63.4 ×10⁻² mm in the data set on Mus musculus [16]; 32.4 ×10⁻² mm with Mus musculus [17]. Moreover, the Activity in the data set on Mus musculus [19] is recorded as 38.9 ×10⁻² mm; in the data set on Mus musculus [22] it was 60.9 ×10⁻² mm; with Mus musculus [23], 29 ×10⁻² mm. The inhibition in vivo at 50 mg/kg in the data set on Mus musculus [5] turned out to be 44.2%; in the data set on Mus musculus [10] it was 50%. The inhibition in vivo at 200 mg/kg in the data set with Mus musculus [6] was 21.9%; with Mus musculus [20], 25.2%. Moreover, the inhibition in vivo at 100 mg/kg in the data set on Mus musculus [7] worked out at 28.8%; in the data set with Mus musculus [13], 20.2%; in the data set with Mus musculus [18] it was 85.9%; with Mus musculus [21], 18.7%.

In the case of `COc1cc(CCC2=NC(=S)N=N2)cc(OC)c1OC`, the Activity is recorded as 106.7 ×10⁻² mm with Mus musculus [1]; “Non-toxic” in the data set on Mus musculus [2]; 79.1 nmol/g in the data set on Mus musculus [3]; 74.5 ×10⁻² mm in the data set on Mus musculus [4]; 52.6 ×10⁻² mm in the data set on Mus musculus [8]; 28 ×10⁻² mm in the data set on Mus musculus [9]. In addition, the Activity is listed as 84.1 ×10⁻² mm with Mus musculus [11]; 65.1 ×10⁻² mm in the data set with Mus musculus [12]; “Non-toxic” in the data set with Mus musculus [14]; 30.8 ×10⁻² mm in the data set with Mus musculus [15]; 37.3 ×10⁻² mm with Mus musculus [16]; 39.7 ×10⁻² mm in the data set with Mus musculus [17]. The Activity stood at 50.5 ×10⁻² mm with Mus musculus [19], 70.3 ×10⁻² mm with Mus musculus [22] and 48.2 ×10⁻² mm in the data set on Mus musculus [23]. The inhibition in vivo at 100 mg/kg in the data set with Mus musculus [24] was 28.2%; in the data set with Mus musculus [7], 40.8%; in the data set with Mus musculus [13], 38%; with Mus musculus [21], 52.2%. The inhibition in vivo at 50 mg/kg in the data set with Mus musculus [25] turned out to be 19.9%.

Usually inhibition in vivo stands for how much of the control response was suppressed.
